Experimental data published in ChEMBL document CHEMBL1130930, “In vitro anti-human immunodeficiency virus (HIV) activity of the chromanone derivative, 12-oxocalanolide A, a novel NNRTI” (Bioorg Med Chem Lett, 1998).
pEC50, pIC50: −log10 of the molar value. Activity calls are given as the source filed them. No cut-off for these calls is given here.

How the values were obtained:
[1] = system: CEM-SS; assay: Compound was evaluated for the antiviral activity against SIV delta in CEM-SS cells; format: functional, cell-based, Homo sapiens
[2] = species on record: Homo sapiens; assay: Compound was evaluated for the anti-HIV activity against HIV strain ROJO in fresh peripheral blood mononuclear cell (PBMC); format: functional, organism-based
[3] = system: Human immunodeficiency virus 1; assay: Compound was evaluated for the antiviral activity against compound resistant virus isolate P236L with amino acid changes in the HIV-1 reverse transcriptase (RT); format: functional, organism-based
[4] = system: U-937; assay: (§1) Compound was evaluated for the anti-HIV activity against HIV strain IIIB in U937 monocytic cell; format: functional, cell-based; settings: Homo sapiens
[5] = Therapeutic index against SIV delta in CEM-SS cells was expressed as IC50/EC50; format: cell-based; settings: simian immunodeficiency virus; for TI: cem-ss
[6] = system: CCRF-CEM; assay: Compound was evaluated for the anti-HIV activity against HIV strain SK1 in CEM-SS T-cells; format: functional, cell-based, Homo sapiens
[7] = system: Human immunodeficiency virus 1; assay: Compound was evaluated for the antiviral activity against compound resistant virus isolate Y181C with amino acid changes in the HIV-1 reverse transcriptase (RT); format: functional, organism-based
[8] = system: Human immunodeficiency virus 1; assay: Compound was evaluated for the antiviral activity against compound resistant virus isolate M184I with amino acid changes in the HIV-1 reverse transcriptase (RT); format: functional, organism-based
[9] = Therapeutic index against HIV-1 strain SK1 in CEM-SS cells was expressed as IC50/EC50; format: cell-based, Human immunodeficiency virus 1; settings: for TI: human immunodeficiency virus 1, cem-ss; for selectivity ratio: human immunodeficiency virus 1, CEM-SS cells infected with HIV-1 strain SK1, read-out: TI
[10] = system: CEM-SS; assay: Compound was evaluated for the antiviral activity against HIV-2 strain ROD in CEM-SS cells; format: functional, Homo sapiens
[11] = system: MT2; assay: Compound was evaluated for the anti-HIV activity against HIV strain IIIB in MT2 T-cells; format: functional, cell-based, Homo sapiens
[12] = system: Human immunodeficiency virus 1; assay: Compound was evaluated for the antiviral activity against compound resistant virus isolate K101E with amino acid changes in the HIV-1 reverse transcriptase (RT); format: functional, organism-based
[13] = system: CEM-SS; assay: Compound was evaluated for the antiviral activity against HIV-1 strain RF in CEM-SS cells; format: functional, cell-based, Homo sapiens
[14] = species on record: Homo sapiens; assay: Compound was evaluated for the anti-HIV activity against HIV strain ADA in monocyte macrophages; format: functional, organism-based
[15] = system: CEM-SS; assay: Compound was evaluated for the antiviral activity against HIV-1 strain SK1 in CEM-SS cells; format: functional, cell-based, Homo sapiens
[16] = system: Human immunodeficiency virus 1; assay: Compound was evaluated for the antiviral activity against compound resistant virus isolate K103N with amino acid changes in the HIV-1 reverse transcriptase (RT); format: functional, organism-based
[17] = Therapeutic index against HIV-1 strain RF in CEM-SS cells was expressed as IC50/EC50; format: organism-based, Human immunodeficiency virus 1; settings: for TI: human immunodeficiency virus 1, cem-ss
[18] = Therapeutic index against HIV-1 strain IIIB in CEM-SS cells was expressed as IC50/EC50; format: cell-based, Human immunodeficiency virus 1; settings: for TI: human immunodeficiency virus 1, cem-ss
[19] = system: CEM-SS; assay: (§2) Compound was evaluated for the antiviral activity against HIV-1 strain IIIB in CEM-SS cells; format: functional, cell-based, Homo sapiens
[20] = species on record: Homo sapiens; assay: Compound was evaluated for the anti-HIV activity against HIV strain TEKI in fresh peripheral blood mononuclear cell (PBMC). Value was expressed as EC50; format: functional, organism-based
[21] = Compound was evaluated for the anti-HIV activity against HIV strain BaL in monocyte; format: functional; settings: Homo sapiens
[22] = system: Human immunodeficiency virus 1; assay: Compound was evaluated for the antiviral activity against compound resistant virus isolate 4 x AZT with amino acid changes in the HIV-1 reverse transcriptase (RT); format: functional, organism-based
[23] = system: CEM-SS; assay: Compound was evaluated for the anti-HIV activity against HIV strain IIIB in CEM-SS Value was expressed as EC50; format: functional, cell-based; settings: Homo sapiens
[24] = system: Human immunodeficiency virus 1; assay: Compound was evaluated for the antiviral activity against resistant virus isolate IIIB with amino acid changes in the HIV-1 reverse transcriptase (RT); format: functional, organism-based
[25] = system: AA5; assay: (§3) Compound was evaluated for the anti-HIV activity against HIV strain IIIB in AA5 EBV-infected B-cell; format: functional, cell-based; settings: Homo sapiens
[26] = species on record: Homo sapiens; assay: Compound was evaluated for the anti-HIV activity against HIV strain BaL in monocyte macrophages; format: functional, organism-based
[27] = as §1; format: functional, cell-based; settings: Homo sapiens, U-937
[28] = system: Human immunodeficiency virus 1; assay: Compound was evaluated for the antiviral activity against compound resistant virus isolate Y181C/K103N with amino acid changes in the HIV-1 reverse transcriptase (RT); format: functional, organism-based
[29] = system: Human immunodeficiency virus 1; assay: Compound was evaluated for the antiviral activity against compound resistant virus isolate T1391 with amino acid changes in the HIV-1 reverse transcriptase (RT); format: functional, organism-based
[30] = system: CCRF-CEM; assay: Compound was evaluated for the anti-HIV activity against HIV strain IIIB in 174 x CEM T-cell:B-cell fusion; format: functional, cell-based; settings: Homo sapiens
[31] = Therapeutic index against HIV-2 strain ROD in CEM-SS cells was expressed as IC50/EC50; format: organism-based; settings: human immunodeficiency virus 2, CEM-SS cells infected with HIV-2 strain ROD; read-out: TI
[32] = system: CCRF-CEM; assay: Compound was evaluated for the anti-HIV activity against HIV strain IIIB in CEM-SS T-cells; format: functional, cell-based; settings: Homo sapiens
[33] = system: Human immunodeficiency virus 1; assay: Compound was evaluated for the antiviral activity against compound resistant virus isolate V1081 with amino acid changes in the HIV-1 reverse transcriptase (RT); format: functional, organism-based
[34] = system: Human immunodeficiency virus 1; assay: Compound was evaluated for the antiviral activity against compound resistant virus isolate Y188H with amino acid changes in the HIV-1 reverse transcriptase (RT); format: functional, organism-based
[35] = system: Human immunodeficiency virus 1; assay: Compound was evaluated for the antiviral activity against compound resistant virus isolate L100I with amino acid changes in the HIV-1 reverse transcriptase (RT); format: functional, organism-based
[36] = system: B-cell; assay: as §3; format: functional, cell-based; settings: Homo sapiens
[37] = species on record: Homo sapiens; assay: Compound was evaluated for the anti-HIV activity against HIV strain TEKI in fresh peripheral blood mononuclear cell (PBMC); format: functional, organism-based
[38] = system: CEM-SS; assay: Compound was evaluated for the antiviral activity against HIV-1 strain SK1 in CEM-SS cells; IA: Inactive; format: functional, cell-based; settings: Homo sapiens
[39] = system: CEM-SS; assay: as §2; format: functional; settings: Homo sapiens
[40] = system: Human immunodeficiency virus 1; assay: Compound was evaluated for the antiviral activity against compound resistant virus isolate K103E with amino acid changes in the HIV-1 reverse transcriptase (RT)

Work on `CCCc1cc(=O)oc2c3c(c4c(c12)OC(C)(C)C=C4)O[C@H](C)[C@@H](C)C3=O` (racemic) yielded a pIC50 ([1]; cem-ss) of 5.18, a pEC50 [2] of 5.66 and a pEC50 [3] of 5.69. It also gave a pEC50 [4] of 5.52, a TI [5] of 5 and a pEC50 [6] of 6.57. The pEC50 [7] was 6.23, the pEC50 [8] was 6.28 and the TI [9] was 37. For the same molecule, the EC25 [10] was 5.57 µM, the IC25 [10] was 13.8 µM and the pEC50 [11] was 6.25. It also gave a pEC50 [12] of less than 4.00, a pEC50 ([13]; cem-ss) of 6.40 and a pIC50 ([13]; cem-ss) of 5.24. The pEC50 [14] was 6.48, the pIC50 ([15]; cem-ss) was 5.20 and the pEC50 [16] was less than 4.00. The TI [17] was 14, the TI [18] was 11 and the pEC50 ([19]; cem-ss) was 6.29. It also gave a pIC50 ([19]; cem-ss) of 5.25, a pEC50 [20] of less than 5.00 and a pEC50 [21] of 6.29. For the same molecule, the pEC50 [22] was 5.44, the pEC50 [23] was 6.28 and the pEC50 [24] was 6.49. For the same molecule, the pEC50 [25] was 5.55.

With `CCCc1cc(=O)oc2c3c(c4c(c12)OC(C)(C)C=C4)O[C@H](C)[C@@H](C)C3=O` (stereo in doubt; (+)-2) the pEC50 ([1]; cem-ss) was 5.78, the pEC50 ([2]; Homo sapiens) was 5.58 and the pEC50 [26] was 5.66. It also gave a pEC50 [3] of 5.17, a pEC50 [27] of less than 5.00 and a TI [5] of 6. The pEC50 [6] was 6.21, the pEC50 [7] was 5.68 and the pEC50 [28] was 5.21. For the same molecule, the pEC50 [8] was 4.22, the pEC50 [29] was less than 4.00 and the TI [9] was greater than 58. It also gave an EC25 [10] of 15.9 µM, an IC25 [10] of 34.8 µM and a pEC50 [11] of 5.58. The pEC50 [12] was 4.58, the pEC50 [30] was less than 5.00 and the pEC50 ([13]; cem-ss) was 6.05. The pEC50 [14] was 5.75, the pEC50 ([15]; cem-ss) was 6.77 and the selectivity ratio [31] was 2. It also gave a pEC50 [32] of 5.96, a pEC50 [16] of 4.51 and a pEC50 [33] of less than 4.00. It also gave a TI [17] greater than 11, a pEC50 [34] of less than 4.00 and a TI [18] greater than 10. It also gave a pEC50 [35] of less than 4.00, a pEC50 ([19]; cem-ss) of 6.00 and a pEC50 ([22]; Human immunodeficiency virus 1) of 5.56. For the same molecule, the pEC50 [24] was 5.83, the pEC50 [36] was less than 5.00 and the pEC50 [37] was less than 5.00.

Molecule `CCCc1cc(=O)oc2c3c(c4c(c12)OC(C)(C)C=C4)O[C@H](C)[C@@H](C)C3=O` (stereo in doubt; (-)-2) has a pIC50 ([1]; Homo sapiens, CEM-SS) of less than 5.00, a pEC50 ([1]; cem-ss) of 5.21 and a TI [5] of 2. It also gave a selectivity ratio [9] greater than 37, a pIC50 ([13]; Homo sapiens, CEM-SS) of less than 5.00 and a pEC50 ([13]; cem-ss) of 5.47. For the same molecule, the pEC50 ([15]; Homo sapiens, CEM-SS) was 6.57, the pIC50 ([15]; Homo sapiens, CEM-SS) was less than 5.00 and the TI [17] was greater than 3. It also gave a TI [18] greater than 5, a pIC50 ([19]; Homo sapiens, CEM-SS) of less than 5.00 and a pEC50 ([19]; cem-ss) of 5.73.

In the case of `CCCc1cc(=O)oc2c3c(c4c(c12)OC(C)(C)C=C4)O[C@H](C)[C@@H](C)[C@@H]3O` [CALANOLIDE A], the EC25 [38] was “inactive”, the pEC50 ([13]; cem-ss) was 6.77 and the pEC50 ([19]; Homo sapiens, CEM-SS) was 6.85.

Molecule `Nc1ccn([C@H]2CC[C@@H](CO)O2)c(=O)n1` [ZALCITABINE] has a pEC50 ([1]; Homo sapiens, CEM-SS) of 6.72, a pIC50 ([1]; Homo sapiens, CEM-SS) of less than 5.30 and a selectivity ratio ([5]; CEM-SS cells infected with SIV delta, read-out: TI) greater than 26. For the same molecule, the selectivity ratio [9] was greater than 100, the EC25 ([10]; Homo sapiens, CEM-SS, read-out: EC25) was 0.03 µM and the IC25 ([10]; Homo sapiens, CEM-SS, read-out: IC25) was greater than 10 µM. For the same molecule, the pEC50 ([13]; Homo sapiens, CEM-SS) was 7.30, the pIC50 ([13]; Homo sapiens, CEM-SS) was less than 5.30 and the pEC50 ([15]; Homo sapiens, CEM-SS) was 7.30. For the same molecule, the pIC50 ([15]; Homo sapiens, CEM-SS) was less than 5.30, the selectivity ratio [31] was greater than 333 and the selectivity ratio ([17]; human immunodeficiency virus 1, CEM-SS cells infected with HIV-1 strain RF, read-out: TI) was greater than 100. The selectivity ratio ([18]; human immunodeficiency virus 1, CEM-SS cells infected with HIV-1 strain IIIB, read-out: TI) was greater than 250, the pEC50 ([19]; Homo sapiens, CEM-SS) was 7.70 and the EC25 [39] was greater than 5 µM.

With `Cc1cn([C@H]2C[C@H](N=[N+]=[N-])[C@@H](CO)O2)c(=O)[nH]c1=O` [ZIDOVUDINE] the pEC50 [40] was 8.40, the pEC50 ([3]; Human immunodeficiency virus 1) was […] and the pEC50 ([7]; Human immunodeficiency virus 1) was 8.22. It also gave a pEC50 [28] greater than 7.52, a pEC50 ([8]; Human immunodeficiency virus 1) of 8.00 and a pEC50 [29] of 7.40. For the same molecule, the pEC50 [34] was greater than 8.52, the pEC50 [35] was greater than 8.52 and the pEC50 ([22]; Human immunodeficiency virus 1) was less than 6.00. It also gave a pEC50 ([24]; Human immunodeficiency virus 1) of 8.05.
